{"source": "patent US20160038526A1", "about": "“TREATMENT OF PROSTATE CANCER” (THOMAS JEFFERSON UNIVERSITY, priority 2012, published 2016)", "type_in_all_cases": "cell-based", "key": {"A2058 human melanoma": {"system": "A2058 human melanoma", "assay": "Cell viability assay, A2058", "method": "(§1) CWR22Rv1 prostate cancer cells were treated with N6BAP or the control compound C5 (Ctrl) at 25 μM concentration or vehicle for 24 h. Following trypan blue exclusion, the attached viable vs. de-attached dead cells were counted. […] The bars indicate mean±SD of triplicate wells. In another assay, CWR22Rv1, LNCaP and DU145 cells were treated with N6BAP, the control compound C5 (Ctrl) or vehicle at indicated concentrations. The fraction of alive cells was determined by MTS ([…]) metabolic activity assay (CellTiter 96® AQueous Assay kit). The results are shown in FIGS. 9C, 9D and 9E, respectively.\n(§2) The procedure of Example 9 was followed, substituting cells of the following solid tumor cell lines for the cells treated in Example 9: A549 human lung cancer cells, CAPAN human pancreatic cancer cells, T47D human breast cancer cells, […], A2058 human melanoma and COS-7 monkey fibroblast cell lines."}, "Stat5a": {"target": "T1, Stat5a (Homo sapiens, UniProt P42229)", "T1 sequence (P42229 1-794)": "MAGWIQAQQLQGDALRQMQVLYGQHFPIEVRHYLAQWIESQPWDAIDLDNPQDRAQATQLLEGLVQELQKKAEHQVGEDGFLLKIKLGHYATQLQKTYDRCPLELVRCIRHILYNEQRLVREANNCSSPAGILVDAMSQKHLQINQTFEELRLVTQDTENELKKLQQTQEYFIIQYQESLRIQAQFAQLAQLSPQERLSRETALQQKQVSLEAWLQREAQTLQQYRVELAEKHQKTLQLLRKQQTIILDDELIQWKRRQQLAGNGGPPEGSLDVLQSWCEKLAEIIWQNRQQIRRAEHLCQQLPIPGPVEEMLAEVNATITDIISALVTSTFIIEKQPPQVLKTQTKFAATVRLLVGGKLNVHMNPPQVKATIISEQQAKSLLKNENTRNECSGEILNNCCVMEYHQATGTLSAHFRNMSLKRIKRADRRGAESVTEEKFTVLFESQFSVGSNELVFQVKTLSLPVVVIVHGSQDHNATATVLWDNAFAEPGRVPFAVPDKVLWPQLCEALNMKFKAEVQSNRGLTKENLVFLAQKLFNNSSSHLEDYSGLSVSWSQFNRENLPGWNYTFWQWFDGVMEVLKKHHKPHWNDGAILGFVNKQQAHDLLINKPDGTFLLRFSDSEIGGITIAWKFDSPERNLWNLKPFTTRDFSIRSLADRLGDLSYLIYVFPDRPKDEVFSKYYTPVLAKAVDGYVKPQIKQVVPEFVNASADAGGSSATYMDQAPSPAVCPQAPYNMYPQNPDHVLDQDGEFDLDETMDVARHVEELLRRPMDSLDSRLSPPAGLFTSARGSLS", "assay": "Stat5a transcriptional activity, β-casein promoter luciferase reporter gene assay in PC-3 cells", "design": "expressed in transfected cells; host or cells: PC-3 (human prostate cancer cell line)", "conditions": "1 hour pretreatment, 10 nM hPrl for 16 hours", "method": "Cells of the human prostate cell line PC-3 were plated into 96-well plate at the density of 2×10^5 per well. After 24 hours of plating, cells were transiently co-transfected using FuGENE6 (Roche) with 0.25 μg of each of pStat5a or pStat5b, pPrlR (prolactin receptor) plasmids, 0.5 μg of pBeta-casein-luc and 0.025 μg of pRL-TK (Renilla luciferase) plasmids as an internal control. After another 24 hours of transfection, the cells were starved in serum-free medium for 8 hours, pretreated with N^6-benzyladenosine-5′-monophosphate (“N6BAP”), or one of five control compounds (designated “C3” through “C7”) of similar molecular weight but unrelated chemical structure to N6BAP), for 1 hour, and then stimulated with 10 nM human prolactin (hPrl) in the serum-free medium for additional 16 hours. The lysates were assayed for firefly and Renilla luciferase activities using the Dual-Luciferase reporter assay system (Promega). Three independent experiments were carried out in triplicate. The firefly luciferase activity was normalized to the Renilla luciferase activity of the same sample, and the mean was calculated from the parallels. From the mean values of each independent run, the overall mean and its standard deviation (S.D.) were calculated."}, "[1]": {"system": "CAPAN human pancreatic cancer cells", "assay": "Cell viability assay, CAPAN", "method": "as §1, §2"}, "COS-7 (monkey kidney)": {"system": "COS-7 (monkey kidney)", "assay": "Cell viability assay, COS-7", "method": "as §1, §2"}, "[2]": {"system": "T47D human breast cancer cells", "assay": "Cell viability assay, T47D", "method": "as §1, §2"}}, "note": "Entries after “also recorded” stand apart in the source; their conditions may differ."}
{"smiles": "O=P(O)(O)OC[C@H]1O[C@@H](n2cnc3c(NCc4ccccc4)ncnc32)[C@H](O)[C@@H]1O", "note": "[N6BAP, N^6-benzyladenosine-5′-monophosphate]", "values": [{"measurement": "cell viability", "setting": "A2058 human melanoma", "value": "did not affect the viability"}, {"measurement": "transcriptional activity of Stat5a on the β-casein gene promoter", "setting": "Stat5a", "value": "inhibited Stat5a and Stat5b transcriptional activity in a concentration-dependent manner; also recorded: effectively blocks the transcriptional activity"}, {"measurement": "cell viability", "setting": "[1]", "value": "did not affect the viability"}, {"measurement": "cell viability", "setting": "COS-7 (monkey kidney)", "value": "did not affect the viability"}, {"measurement": "cell viability", "setting": "[2]", "value": "did not affect the viability"}]}
